In patent EP0411593A2, “Use of bis (aminothiocarbonyl) disulfide for treating ulcer” (KURARAY CO., LTD., priority 1989, dated 1991):

Tests used:
[1] = test system: HCl-ethanol induced ulcer; assay: Antiulcer activity (HCl-ethanol ulcer), oral administration; format: in vivo; conditions: rats, inhibition of ulcer coefficient vs control; for Inhibitation Rate (%): dose 5 mg/kg orally one hour before HCl-ethanol
Description: Antiulcer activity (HCl-ethanol ulcer) 1.5 ml of 60% ethanol aqueous solution containing 150 mM of hydrochloric acid was orally administered to rats. One hour thereafter the rats were sacrificed and the length (mm) of HCl-ethanol induced ulcer generated at the mucosa of the stomach was measured. The sum of the ulcer length per animal is defined as ulcer coefficient. Specimens each was orally administered one hour before the HCl-ethanol administration. Inhibition rate was calculated by dividing the difference in ulcer coefficient between the control group and the specimen-administered group by the ulcer coefficient of the control group.

[2] = Acute toxicity through oral administration; conditions: mouse, in vivo, male ICR-strain mice (5 weeks old), read-out: LD₅₀
Description: Acute toxicity tests through oral administration were carried out using male ICR-strain mice (5 weeks old).
The LD₅₀ values of the compound (1) of the present invention was 2000 mg/kg or more and thus higher saftety as compared with the effective amount was ascertained.

**Q.** With `S=C(SSC(=S)N1CCOCC1)N1CCOCC1` [Compound Number (1)] as the compound, how does the “Inhibitation Rate (%)” value [1] read?
**A.** 93.7%

**Q.** And the LD50 [2]?
**A.** ≥ 2000 mg/kg

**Q.** With `CC1CN(C(=S)SSC(=S)N2CC(C)OC(C)C2)CC(C)O1` (centres unmarked) [Compound Number (2)] as the compound, how does the “Inhibitation Rate (%)” value [1] read?
**A.** 81.7%

**Q.** For `OCCN1CCN(C(=S)SSC(=S)N2CCN(CCO)CC2)CC1` [Compound Number (3)], which “Inhibitation Rate (%)” value [1] is on record?
**A.** 24.3%

**Q.** For `S=C(SSC(=S)N1CCCCC1)N1CCCCC1` [Compound Number (4)], which “Inhibitation Rate (%)” value [1] is on record?
**A.** 64.1%

**Q.** For `OCCC1CCN(C(=S)SSC(=S)N2CCC(CCO)CC2)CC1` [Compound Number (5), bis[[4-(2-hydroxyethyl)piperidiono]thiocarbonyl]disulfide], which “Inhibitation Rate (%)” value [1] is on record?
**A.** 37.4%

**Q.** Which “Inhibiton Rate (%)” value ([1]; dose 100 mg/kg orally one hour before HCl-ethanol) does the source give for `CC(=O)c1ccc2c(c1)C(=O)C1(CC1)O2` [Spizofurone, reference compound] here?
**A.** 86.6%

**Q.** Which “Inhibiton Rate (%)” value ([1]; dose 25 mg/kg orally one hour before HCl-ethanol) does the source give for Teprenone [reference compound] here?
**A.** 48.9%
